This passage reports bioavailability and ionization results from patent US20080176913A1, “TRANSDERMAL COMPOSITIONS OF PRAMIPEXOLE HAVING ENHANCED PERMEATION PROPERTIES” (priority 2006, published 2008).

What is called bioavailability is dose-corrected exposure relative to a reference, in per cent.

For data set [1] the following is noted: oral administration, daily dose of about 1.5 to 4.5 mg; cited from earlier work.

Molecules are shown by their SMILES. Counter-ions that a name gives are not always drawn. Like-named read-outs stand apart in the source and are kept apart here.

Consider `CCCN[C@H]1CCc2nc(N)sc2C1` [pramipexole, (S)-2-amino-4,5,6,7-tetrahydro-6-(propylamino)benzothiazole dihydrochloride monohydrate], for which the bioavailability in data set [1] was 90%. Also, the ionization entry (at pH of about 8.0) was “about 97%” and the ionization entry (at pH of about 10.5) is “about 33%”.
